Results taken from ChEMBL document CHEMBL5038589, “Design, Synthesis, and Structure-Activity Relationship of N-Aryl-N'-(thiophen-2-yl)thiourea Derivatives as Novel and Specific Human TLR1/2 Agonists for Potential Cancer Immunotherapy” (J Med Chem, 2021).
The source made the active and inactive calls.

Columns and labels:
[1] = molecular target: Toll-like receptor 2 (Homo sapiens, UniProt O60603); assay: Agonist activity at TLR2 in HEK-Blue cells incubated for 24 hrs by Quanti-Blue based SEAP assay; assay type: cell-based; conditions: HEK-Blue hTLR2, filed as agonist
[2] = molecular target: Toll-like receptor 1 (Homo sapiens) (UniProt Q15399); assay: Agonist activity at TLR1 in HEK-Blue hTLR2 cells at 0.2 uM incubated for 24 hrs in presence of anti-hTLR1-IgG antibodies measured by Quanti-Blue based SEAP assay; assay type: cell-based; conditions: filed as agonist
[3] = system: PBMC; assay: Induction of TNFalpha secretion in human PBMC incubated for 24 hrs by ELISA method; assay type: functional, cell-based; conditions: dose 0.01-10 µM
[4] = Cytotoxicity against human PBMC upto 100 uM incubated for 24 hrs by CCK-8 assay; assay type: toxicity, cell-based
[5] = system: THP-1; assay: Upregulation of TLR1 expression in human THP-1 cells at 20 uM by immunoprecipitation method; assay type: functional, cell-based
[6] = system: HCT-116; assay: Induction of apoptosis in human HCT-116 cells cocultured with PMA-differentiated THP-1 cells assessed as increase in annexin-V positive cells at 10 uM measured after 24 hrs by annexin V-FITC/PI staining based flow cytometry (reference value: 16.23%); assay type: functional
[7] = system: Macrophage; assay: Induction of IL-6 secretion in wild-type C57BL/6 mouse peritoneal macrophages at 0.01 to 10 uM incubated for 24 hrs by ELISA method; assay type: functional, cell-based; conditions: dose 0.01-10 µM
[8] = molecular target: Toll-like receptor 7 (Homo sapiens) (UniProt Q9NYK1); assay: Agonist activity at TLR7 in HEK-Blue hTLR7 cells at 0.1 to 100 uM incubated for 24 hrs by Quanti-Blue based SEAP assay; assay type: cell-based; conditions: dose 0.1-100 µM
[9] = system: THP-1; assay: Induction of ERK phosphorylation in human PMA-differentiated THP-1 cells at 10 uM incubated for 2 hrs by Western blot analysis; assay type: functional, cell-based
[10] = system: MCF7; assay: Induction of apoptosis in human MCF7 cells upto 100 uM by microplate reader analysis; assay type: functional, cell-based; conditions: dose microM <=100
[11] = system: THP-1; assay: Upregulation of MyD88 expression in human PMA-differentiated THP-1 cells in presence of T6167923 at 10 uM incubated for 2 hrs by western blot analysis; assay type: functional, cell-based
[12] = molecular target: Toll-like receptor 8 (Homo sapiens) (UniProt Q9NR97); assay: Agonist activity at TLR8 in HEK-Blue hTLR8 cells at 0.1 to 100 uM incubated for 24 hrs by Quanti-Blue based SEAP assay; assay type: cell-based; conditions: dose 0.1-100 µM
[13] = system: CD3-positive T cell; assay: Immunostimulatory activity in mouse C57 spleen CD3+ T cells in assessed as fold increase at 0.1 to 10 uM incubated for 48 hrs by flow cytometry analysis; assay type: functional, cell-based; conditions: dose 0.1-10 µM
[14] = system: Macrophage; assay: Induction of TNFalpha secretion in wild-type C57BL/6 mouse peritoneal macrophages at 0.01 to 10 uM incubated for 24 hrs by ELISA method; assay type: functional, cell-based; conditions: dose 0.01-10 µM
[15] = Stability in mouse liver microsomes assessed as half life at 250 uM in presence of NADPH by HPLC-MS analysis; assay type: ADME
[16] = system: HEK-Blue hTLR2; assay: Upregulation of TLR2 expression in HEK-Blue TLR2 cells incubated for 24 hrs by Western blot analysis; assay type: functional, cell-based; conditions: Homo sapiens, dose 0.01-50 µM
[17] = system: THP-1; assay: Agonist activity at TLR2/MyD88 in human THP-1 cells assessed as induction of TLR2/MyD88 complex formation at 20 uM incubated for 12 hrs by coimmunoprecipitation method; assay type: cell-based; conditions: filed as agonist
[18] = Selectivity index, ratio of CC50 for HEK-Blue TLR2 cells to EC50 for agonist activity at TLR2 in HEK-Blue TLR2 cells; assay type: functional
[19] = molecular target: Toll-like receptor 1/2 (Homo sapiens) (UniProt O60603+Q15399); assay: Agonist activity at TLR1/TLR2 in human THP-1 cells assessed as induction of TLR1/TLR2 dimerization at 20 uM incubated for 12 hrs by coimmunoprecipitation method; assay type: cell-based; conditions: filed as agonist
[20] = system: THP-1; assay: Upregulation of MyD88 expression in human PMA-differentiated THP-1 cells assessed as induction of p65 phosphorylation at 10 uM incubated for 2 hrs by Western blot analysis; assay type: functional, cell-based
[21] = system: THP-1; assay: Upregulation of MyD88 expression in human PMA-differentiated THP-1 cells assessed as induction of IKKbeta phosphorylation at 10 uM incubated for 2 hrs by Western blot analysis; assay type: functional, cell-based
[22] = system: PBMC; assay: Induction of IL-1beta secretion in human PBMC incubated for 24 hrs by ELISA method; assay type: functional, cell-based; conditions: dose 0.01-10 µM
[23] = system: Macrophage; assay: Induction of TNFalpha secretion in TLR2-/- C57BL/6 mouse peritoneal macrophages at 0.01 to 10 uM incubated for 24 hrs by ELISA method; assay type: functional, cell-based; conditions: dose 0.01-10 µM
[24] = system: THP-1; assay: Upregulation of MyD88 expression in human PMA-differentiated THP-1 cells assessed as induction of IKKalpha phosphorylation at 10 uM incubated for 2 hrs by Western blot analysis; assay type: functional, cell-based
[25] = molecular target: Nuclear factor NF-kappa-B complex (Homo sapiens) (UniProt Q00653+P19838+Q04206); assay: Activation of NF-kappaB signalling in HEK-Blue hTLR2 cells at 10 uM in presence of triptolide; assay type: cell-based
[26] = system: THP-1; assay: Induction of JNK phosphorylation in human PMA-differentiated THP-1 cells at 10 uM incubated for 2 hrs by Western blot analysis; assay type: functional, cell-based
[27] = system: THP-1; assay: Upregulation of TLR2 expression in human THP-1 cells at 0.01 to 50 uM incubated for 24 hrs by Western blot analysis; assay type: functional, cell-based; conditions: dose 0.01-50 µM
[28] = system: Monocyte; assay: Immunostimulatory activity in human monocytes assessed as fold increase at 0.1 to 10 uM incubated for 48 hrs by flow cytometry analysis; assay type: functional; conditions: dose 0.1-10 µM
[29] = system: THP-1; assay: Upregulation of MyD88 expression in human PMA-differentiated THP-1 cells assessed as downregulation of IkappaBalpha at 10 uM incubated for 2 hrs by Western blot analysis; assay type: functional, cell-based
[30] = system: MCF7; assay: Induction of apoptosis in human MCF7 cells cocultured with PMA-differentiated THP-1 cells assessed as late apoptotic cells at 10 uM measured after 24 hrs by annexin V-FITC/PI staining based flow cytometry (reference value: 5.41 %); assay type: functional
[31] = molecular target: Toll-like receptor 3 (Homo sapiens) (UniProt O15455); assay: Agonist activity at TLR3 in HEK-Blue hTLR3 cells at 0.1 to 100 uM incubated for 24 hrs by Quanti-Blue based SEAP assay; assay type: cell-based; conditions: dose 0.1-100 µM
[32] = molecular target: Toll-like receptor 4 (Homo sapiens) (UniProt O00206); assay: Agonist activity at TLR4 in HEK-Blue hTLR4 cells at 0.1 to 100 uM incubated for 24 hrs by Quanti-Blue based SEAP assay; assay type: cell-based; conditions: dose 0.1-100 µM
[33] = system: CD3-positive T cell; assay: Immunostimulatory activity in human CD3+ T cells at 0.1 to 10 uM incubated for 48 hrs by flow cytometry analysis; assay type: functional, cell-based; conditions: dose 0.1-10 µM
[34] = system: THP-1; assay: Upregulation of TLR6 expression in human THP-1 cells at 20 uM by immunoprecipitation method; assay type: functional, cell-based
[35] = system: HCT-116; assay: Induction of apoptosis in human HCT-116 cells upto 100 uM by microplate reader analysis; assay type: functional, cell-based; conditions: dose microM <=100
[36] = system: B-cell line; assay: Immunostimulatory activity in mouse C57 spleen B cells in assessed as fold increase at 0.1 to 10 uM incubated for 48 hrs by flow cytometry analysis; assay type: functional, cell-based; conditions: dose 0.1-10 µM

Toll-like receptor 1 (Homo sapiens), sequence (Q15399 whole entry): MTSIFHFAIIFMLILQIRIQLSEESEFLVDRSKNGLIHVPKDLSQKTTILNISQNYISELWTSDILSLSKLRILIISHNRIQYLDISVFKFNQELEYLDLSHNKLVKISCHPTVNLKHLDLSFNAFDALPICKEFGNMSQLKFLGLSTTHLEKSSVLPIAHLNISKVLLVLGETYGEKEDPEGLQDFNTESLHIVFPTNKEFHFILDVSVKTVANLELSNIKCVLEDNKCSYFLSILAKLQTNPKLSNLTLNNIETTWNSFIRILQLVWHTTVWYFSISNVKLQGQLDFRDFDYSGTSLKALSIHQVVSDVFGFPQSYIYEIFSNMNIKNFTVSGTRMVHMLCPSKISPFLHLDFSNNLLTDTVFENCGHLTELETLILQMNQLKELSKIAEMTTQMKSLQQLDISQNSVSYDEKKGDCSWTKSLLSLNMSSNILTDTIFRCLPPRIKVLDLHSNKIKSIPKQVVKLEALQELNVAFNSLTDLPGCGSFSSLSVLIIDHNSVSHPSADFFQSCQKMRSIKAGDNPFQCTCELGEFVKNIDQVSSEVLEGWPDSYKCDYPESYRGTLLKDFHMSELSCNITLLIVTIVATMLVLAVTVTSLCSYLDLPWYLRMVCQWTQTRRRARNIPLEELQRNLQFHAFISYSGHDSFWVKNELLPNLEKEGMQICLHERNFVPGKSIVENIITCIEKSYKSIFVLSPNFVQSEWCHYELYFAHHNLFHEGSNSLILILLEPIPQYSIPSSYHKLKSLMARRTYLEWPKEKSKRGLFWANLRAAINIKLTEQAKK
Toll-like receptor 8 (Homo sapiens), sequence (Q9NR97 whole entry): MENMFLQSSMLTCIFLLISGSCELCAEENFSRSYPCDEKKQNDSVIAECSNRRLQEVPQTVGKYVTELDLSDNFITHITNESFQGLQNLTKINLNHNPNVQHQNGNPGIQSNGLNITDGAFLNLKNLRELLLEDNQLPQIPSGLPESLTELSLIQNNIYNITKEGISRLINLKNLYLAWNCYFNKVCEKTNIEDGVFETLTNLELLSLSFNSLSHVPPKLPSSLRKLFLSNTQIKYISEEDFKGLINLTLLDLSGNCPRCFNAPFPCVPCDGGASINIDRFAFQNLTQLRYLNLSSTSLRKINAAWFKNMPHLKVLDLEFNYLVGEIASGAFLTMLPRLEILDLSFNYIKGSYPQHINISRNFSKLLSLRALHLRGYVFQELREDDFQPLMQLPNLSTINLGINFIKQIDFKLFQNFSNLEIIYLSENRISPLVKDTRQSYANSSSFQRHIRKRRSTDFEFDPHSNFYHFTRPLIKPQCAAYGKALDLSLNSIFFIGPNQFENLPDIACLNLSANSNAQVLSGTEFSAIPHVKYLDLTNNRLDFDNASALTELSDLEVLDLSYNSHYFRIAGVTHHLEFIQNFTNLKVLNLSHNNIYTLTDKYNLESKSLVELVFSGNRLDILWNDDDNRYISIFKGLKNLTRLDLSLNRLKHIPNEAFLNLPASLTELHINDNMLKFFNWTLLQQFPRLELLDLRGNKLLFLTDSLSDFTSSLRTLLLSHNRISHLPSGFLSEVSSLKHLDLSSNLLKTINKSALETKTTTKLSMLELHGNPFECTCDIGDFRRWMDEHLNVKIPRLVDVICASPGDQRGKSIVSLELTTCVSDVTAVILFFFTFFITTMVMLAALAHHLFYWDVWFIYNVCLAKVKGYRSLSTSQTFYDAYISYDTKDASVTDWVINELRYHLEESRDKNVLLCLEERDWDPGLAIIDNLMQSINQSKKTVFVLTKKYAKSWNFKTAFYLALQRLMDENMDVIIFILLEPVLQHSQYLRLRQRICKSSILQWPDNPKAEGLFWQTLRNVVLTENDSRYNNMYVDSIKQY
Toll-like receptor 4 (Homo sapiens), sequence (O00206 whole entry): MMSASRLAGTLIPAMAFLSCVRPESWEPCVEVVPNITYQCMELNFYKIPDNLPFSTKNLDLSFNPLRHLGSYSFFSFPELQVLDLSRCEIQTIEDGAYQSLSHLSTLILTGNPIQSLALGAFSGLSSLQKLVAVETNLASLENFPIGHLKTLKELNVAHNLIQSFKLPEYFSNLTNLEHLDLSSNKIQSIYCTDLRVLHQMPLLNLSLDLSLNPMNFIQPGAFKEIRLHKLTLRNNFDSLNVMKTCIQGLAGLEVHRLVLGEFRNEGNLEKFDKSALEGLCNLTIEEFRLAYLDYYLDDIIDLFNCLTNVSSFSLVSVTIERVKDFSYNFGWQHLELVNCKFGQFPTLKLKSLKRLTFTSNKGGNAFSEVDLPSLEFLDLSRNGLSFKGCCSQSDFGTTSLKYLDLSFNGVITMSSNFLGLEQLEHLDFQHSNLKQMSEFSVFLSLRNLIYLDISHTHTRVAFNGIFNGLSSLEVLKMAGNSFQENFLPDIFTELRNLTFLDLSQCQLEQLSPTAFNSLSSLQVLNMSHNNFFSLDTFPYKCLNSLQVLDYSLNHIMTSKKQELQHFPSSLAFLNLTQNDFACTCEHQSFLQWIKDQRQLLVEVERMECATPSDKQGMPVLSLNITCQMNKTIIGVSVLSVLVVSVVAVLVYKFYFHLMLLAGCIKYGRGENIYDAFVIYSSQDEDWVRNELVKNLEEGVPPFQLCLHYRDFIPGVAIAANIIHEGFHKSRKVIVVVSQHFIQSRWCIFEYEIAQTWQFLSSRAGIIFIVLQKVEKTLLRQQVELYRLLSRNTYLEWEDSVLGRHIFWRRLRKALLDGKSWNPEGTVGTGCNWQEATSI
Nuclear factor NF-kappa-B complex (Homo sapiens), sequence (P19838 whole entry, looked up): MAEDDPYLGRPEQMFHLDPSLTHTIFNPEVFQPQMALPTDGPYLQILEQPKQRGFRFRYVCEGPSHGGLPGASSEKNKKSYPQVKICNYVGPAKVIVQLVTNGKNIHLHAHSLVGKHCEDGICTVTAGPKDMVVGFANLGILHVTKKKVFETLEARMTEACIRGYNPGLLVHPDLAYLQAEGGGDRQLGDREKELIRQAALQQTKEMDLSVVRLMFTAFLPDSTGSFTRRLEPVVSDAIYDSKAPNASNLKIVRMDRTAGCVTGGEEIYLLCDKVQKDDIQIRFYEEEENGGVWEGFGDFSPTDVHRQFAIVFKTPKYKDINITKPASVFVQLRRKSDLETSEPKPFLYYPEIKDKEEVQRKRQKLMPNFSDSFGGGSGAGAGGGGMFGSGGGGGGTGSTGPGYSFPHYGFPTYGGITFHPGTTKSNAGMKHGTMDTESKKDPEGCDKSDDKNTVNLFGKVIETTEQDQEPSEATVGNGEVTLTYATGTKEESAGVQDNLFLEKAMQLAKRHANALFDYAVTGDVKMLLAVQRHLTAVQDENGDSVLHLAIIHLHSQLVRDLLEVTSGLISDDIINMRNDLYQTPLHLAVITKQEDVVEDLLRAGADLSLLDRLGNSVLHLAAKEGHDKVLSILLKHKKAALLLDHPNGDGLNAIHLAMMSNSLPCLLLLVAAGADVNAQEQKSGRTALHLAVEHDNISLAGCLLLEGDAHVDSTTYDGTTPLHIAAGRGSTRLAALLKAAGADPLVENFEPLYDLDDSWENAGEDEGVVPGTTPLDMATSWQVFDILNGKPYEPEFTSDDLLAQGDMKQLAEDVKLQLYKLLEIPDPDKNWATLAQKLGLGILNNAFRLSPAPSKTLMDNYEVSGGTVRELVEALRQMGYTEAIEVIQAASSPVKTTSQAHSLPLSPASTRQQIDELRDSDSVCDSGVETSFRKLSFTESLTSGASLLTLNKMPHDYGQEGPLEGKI
Nuclear factor NF-kappa-B complex (Homo sapiens), sequence (Q00653 whole entry, looked up): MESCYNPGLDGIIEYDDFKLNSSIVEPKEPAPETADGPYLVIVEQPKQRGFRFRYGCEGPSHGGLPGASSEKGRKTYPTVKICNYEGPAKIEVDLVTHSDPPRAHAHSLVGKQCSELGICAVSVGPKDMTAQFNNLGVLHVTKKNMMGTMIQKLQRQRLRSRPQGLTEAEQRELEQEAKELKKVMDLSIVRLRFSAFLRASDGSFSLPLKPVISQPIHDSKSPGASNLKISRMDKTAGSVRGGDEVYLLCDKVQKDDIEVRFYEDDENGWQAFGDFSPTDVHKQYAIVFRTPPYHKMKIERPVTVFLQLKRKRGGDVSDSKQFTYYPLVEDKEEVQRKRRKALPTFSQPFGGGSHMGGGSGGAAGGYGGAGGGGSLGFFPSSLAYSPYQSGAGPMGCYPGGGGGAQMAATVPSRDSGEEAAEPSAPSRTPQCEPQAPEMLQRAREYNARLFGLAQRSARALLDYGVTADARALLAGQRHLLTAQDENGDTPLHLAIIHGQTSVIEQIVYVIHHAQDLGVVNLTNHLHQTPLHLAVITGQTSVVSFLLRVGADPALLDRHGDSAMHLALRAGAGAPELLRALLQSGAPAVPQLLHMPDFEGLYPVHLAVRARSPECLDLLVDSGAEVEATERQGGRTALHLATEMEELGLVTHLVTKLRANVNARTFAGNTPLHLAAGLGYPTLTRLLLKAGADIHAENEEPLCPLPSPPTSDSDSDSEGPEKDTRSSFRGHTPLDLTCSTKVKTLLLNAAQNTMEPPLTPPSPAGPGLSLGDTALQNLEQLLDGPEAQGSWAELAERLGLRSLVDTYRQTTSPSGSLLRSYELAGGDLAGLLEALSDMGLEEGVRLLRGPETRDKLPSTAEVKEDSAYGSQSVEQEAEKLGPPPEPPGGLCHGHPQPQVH
Nuclear factor NF-kappa-B complex (Homo sapiens), sequence (Q04206 whole entry, looked up): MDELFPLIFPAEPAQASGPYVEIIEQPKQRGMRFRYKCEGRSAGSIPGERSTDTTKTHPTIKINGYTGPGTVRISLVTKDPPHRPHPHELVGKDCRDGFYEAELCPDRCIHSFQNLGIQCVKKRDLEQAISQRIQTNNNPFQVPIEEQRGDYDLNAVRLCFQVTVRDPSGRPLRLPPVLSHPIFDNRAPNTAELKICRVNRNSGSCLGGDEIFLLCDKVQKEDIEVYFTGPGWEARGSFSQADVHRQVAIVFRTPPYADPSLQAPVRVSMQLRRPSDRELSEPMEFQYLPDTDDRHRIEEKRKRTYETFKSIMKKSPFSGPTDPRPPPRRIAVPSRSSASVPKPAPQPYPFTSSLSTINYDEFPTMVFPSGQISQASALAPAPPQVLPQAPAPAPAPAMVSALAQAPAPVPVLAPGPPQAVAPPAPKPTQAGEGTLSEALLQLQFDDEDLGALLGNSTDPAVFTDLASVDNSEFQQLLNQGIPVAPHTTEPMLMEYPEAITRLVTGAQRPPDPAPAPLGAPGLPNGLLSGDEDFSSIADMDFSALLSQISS

CC(C)OC(=O)c1c(NC(=S)Nc2ccc(F)c3ccccc23)sc2c1CCC2
25%: Activity [30]
inactive: Activity [7] | Activity [8] | Activity [9] | Activity [10] | Activity [11] | Activity [12] | Activity [13] | Activity [14] | Activity [23] | Activity [25] | Activity [26] | Activity [31] | Activity [32] | Activity [34] | Activity [35] | Activity [36]
1.5 h: half-life at 250 µM [15]
2: fold change (FC) [28]
Non-Toxic: Activity [4]
>3200: Ratio CC50/EC50 [18]
active: Activity [1] Dose-Dependent Effect | Activity [2] | Activity [3] Dose-Dependent Effect | Activity [5] | Activity [16] Dose-Dependent Effect | Activity [17] | Activity [19] | Activity [20] | Activity [21] | Activity [22] Dose-Dependent Effect | Activity [24] | Activity [27] | Activity [29] | Activity [33]
25.85%: Activity [6]
